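Dose response: 5 concentrations. Exposure: 48 h. Format: 96-well plates. Endpoint: linear interpolation; highest concentration if not reached. GI50 is the concentration that inhibits growth by half.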 Activity calls are given as the source filed them. Rule as the data show it: active = GI50 up to about 1.1 µM and inactive = higher.
Legend:
Assay in all cases: growth of human tumour cells (NCI), 48 h
[1] = tested on: HOP-62
[2] = tested on: LXFL 529
[3] = tested on: HL-60
[4] = tested on: SN12C
[5] = tested on: UACC-62
[6] = tested on: SNB-19
[7] = tested on: LOX IMVI
[8] = tested on: NCI-H460
[9] = tested on: UO-31
[10] = tested on: TK-10
[11] = tested on: OVCAR-8
[12] = tested on: OVCAR-3
[13] = tested on: SF-268
[14] = tested on: ACHN
[15] = tested on: DMS-114
[16] = tested on: NCI-H226
[17] = tested on: HCC 2998
[18] = tested on: SK-OV-3
[19] = tested on: K562
[20] = tested on: NCI-H23
[21] = tested on: DMS-273
[22] = tested on: SW-620
[23] = tested on: HOP-18
[24] = tested on: UACC-257
[25] = tested on: SF-295
[26] = tested on: SNB-75
[27] = tested on: M19-MEL
[28] = tested on: SK-MEL-5
[29] = tested on: NCI-H522
[30] = tested on: OVCAR-5
[31] = tested on: EKVX
[32] = tested on: RXF 631
[33] = tested on: OVCAR-4
[34] = tested on: DLD-1
[35] = tested on: HCT-116
[36] = tested on: A549
[37] = tested on: U-251
[38] = tested on: RPMI-8226
[39] = tested on: SF-539
[40] = tested on: HCT-15
[41] = tested on: Malme-3M
[42] = tested on: CAKI-1
[43] = tested on: RXF 393
[44] = tested on: SK-MEL-2
[45] = tested on: SNB-78
[46] = tested on: IGROV-1
[47] = tested on: KM-20L2
[48] = tested on: CCRF-CEM
[49] = tested on: MOLT-4
[50] = tested on: HT-29
[51] = tested on: SR
[52] = tested on: M14
[53] = tested on: KM12
[54] = tested on: HOP-92
[55] = tested on: 786-0
[56] = tested on: A498
[57] = tested on: COLO 205
[58] = tested on: SK-MEL-28

O=C1c2cccc3c2C(=O)c2c(cccc21)OCCOCCOCCOCCO3
GI50 [1]: > 100 µM (inactive)
GI50 [2]: > 100 µM (inactive)
GI50 [3]: 74.5 µM (inactive)
GI50 [4]: > 100 µM (inactive)
GI50 [5]: > 100 µM (inactive)
GI50 [6]: > 100 µM (inactive)
GI50 [7]: 78.2 µM (inactive)
GI50 [8]: 78.3 µM (inactive)
GI50 [9]: 30.9 µM (inactive)
GI50 [10]: > 100 µM (inactive)
GI50 [11]: > 100 µM (inactive)
GI50 [12]: > 100 µM (inactive)
GI50 [13]: > 100 µM (inactive)
GI50 [14]: 78.5 µM (inactive)
GI50 [15]: 86.1 µM (inactive)
GI50 [16]: 34.2 µM (inactive)
GI50 [17]: > 100 µM (inactive)
GI50 [18]: > 100 µM (inactive)
GI50 [19]: 61.4 µM (inactive)
GI50 [20]: > 100 µM (inactive)
GI50 [21]: > 100 µM (inactive)
GI50 [22]: > 100 µM (inactive)
GI50 [23]: > 100 µM (inactive)
GI50 [24]: > 100 µM (inactive)
GI50 [25]: > 100 µM (inactive)
GI50 [26]: 40.9 µM (inactive)
GI50 [27]: > 100 µM (inactive)
GI50 [28]: 75.7 µM (inactive)
GI50 [29]: > 100 µM (inactive)
GI50 [30]: > 100 µM (inactive)
GI50 [31]: > 100 µM (inactive)
GI50 [32]: 91.6 µM (inactive)
GI50 [33]: 74.6 µM (inactive)
GI50 [34]: > 100 µM (inactive)
GI50 [35]: > 100 µM (inactive)
GI50 [36]: > 100 µM (inactive)
GI50 [37]: > 100 µM (inactive)
GI50 [38]: 55.2 µM (inactive)
GI50 [39]: > 100 µM (inactive)
GI50 [40]: > 100 µM
GI50 [41]: > 100 µM (inactive)
GI50 [42]: 96.4 µM (inactive)
GI50 [43]: 78.2 µM (inactive)
GI50 [44]: > 100 µM (inactive)
GI50 [45]: > 100 µM (inactive)
GI50 [46]: > 100 µM (inactive)
GI50 [47]: > 100 µM (inactive)
GI50 [48]: 47.2 µM (inactive)
GI50 [49]: 31.5 µM (inactive)
GI50 [50]: > 100 µM (inactive)
GI50 [51]: 14.2 µM (inactive)
GI50 [52]: > 100 µM (inactive)

COC(=O)C1=C(C(=O)OC)SC(=C(/N=N/c2ccccc2)c2ccccc2)S1
GI50 [1]: > 100 µM (inactive)
GI50 [53]: > 100 µM (inactive)
GI50 [2]: 58.5 µM (inactive)
GI50 [54]: > 100 µM (inactive)
GI50 [3]: > 100 µM (inactive)
GI50 [4]: > 100 µM (inactive)
GI50 [5]: > 100 µM (inactive)
GI50 [6]: > 100 µM (inactive)
GI50 [7]: > 100 µM (inactive)
GI50 [8]: > 100 µM (inactive)
GI50 [9]: > 100 µM (inactive)
GI50 [10]: > 100 µM (inactive)
GI50 [11]: > 100 µM (inactive)
GI50 [12]: 61.2 µM (inactive)
GI50 [55]: 50.8 µM (inactive)
GI50 [13]: > 100 µM (inactive)
GI50 [14]: 80.9 µM (inactive)
GI50 [16]: > 100 µM (inactive)
GI50 [56]: > 100 µM (inactive)
GI50 [17]: > 100 µM (inactive)
GI50 [18]: > 100 µM (inactive)
GI50 [19]: > 100 µM (inactive)
GI50 [57]: > 100 µM (inactive)
GI50 [20]: > 100 µM (inactive)
GI50 [21]: > 100 µM (inactive)
GI50 [22]: > 100 µM (inactive)
GI50 [23]: > 100 µM (inactive)
GI50 [24]: > 100 µM (inactive)
GI50 [25]: > 100 µM (inactive)
GI50 [26]: > 100 µM (inactive)
GI50 [27]: > 100 µM (inactive)
GI50 [28]: > 100 µM (inactive)
GI50 [58]: > 100 µM (inactive)
GI50 [29]: 83.6 µM (inactive)
GI50 [30]: > 100 µM (inactive)
GI50 [31]: > 100 µM (inactive)
GI50 [32]: > 100 µM (inactive)
GI50 [33]: > 100 µM (inactive)
GI50 [34]: > 100 µM (inactive)
GI50 [35]: > 100 µM (inactive)
GI50 [36]: > 100 µM (inactive)
GI50 [37]: > 100 µM (inactive)
GI50 [38]: > 100 µM (inactive)
GI50 [39]: > 100 µM (inactive)
GI50 [40]: > 100 µM
GI50 [41]: > 100 µM (inactive)
GI50 [42]: > 100 µM (inactive)
GI50 [44]: > 100 µM (inactive)
GI50 [45]: > 100 µM (inactive)
GI50 [46]: > 100 µM (inactive)
GI50 [47]: > 100 µM (inactive)
GI50 [48]: > 100 µM (inactive)
GI50 [49]: > 100 µM (inactive)
GI50 [50]: > 100 µM (inactive)
GI50 [51]: > 100 µM (inactive)
GI50 [52]: 45.8 µM (inactive)
